Experimental data taken from patent US4435417A, “Antiinflammatory 3H-naphtho[1,2-d]imidazoles” (Gruppo Lepetit S.p.A., priority 1982, dated 1984).

What was measured:
[1] = tested on: carrageenin-induced edema in the rat paw; experiment: Carrageenin-induced edema of the rat paw (Winter et al.); type: in vivo; settings: po, read-out: Percent inhibition of the carrageenin-induced edema; for inhibition in vivo at 50 mg/kg: 50 mg/kg os; for inhibition in vivo at 100 mg/kg: 100 mg/kg os; for inhibition in vivo at 200 mg/kg: 200 mg/kg os; for inhibition in vivo at 20 mg/kg: 20 mg/kg os
in vivo = settings: mouse, po
Experimental: The toxicities were determined according to Lichtfield and Wilcoxon, Journ. Pharm.

[2] = tested on: granuloma formed on a cotton pellet implanted subcutaneously in rats; experiment: Cotton pellet granuloma test in rats (Meier et al.); settings: Rattus norvegicus, po, read-out: Percent inhibition of the granuloma pellet
[3] = tested on: adjuvant induced arthritis in rats; experiment: Adjuvant induced arthritis test in rats (Newbold); type: in vivo, rat; settings: rats p.o.
Experimental: In still another some of the compounds were tested in the adjuvant induced arthritis test in rats.
This test which was performed as described by B. B. Newbold in Bri. Journ. Pharmacol., 21, 127, (1963), is absolutely meaningful, because adjuvant arthritis is one of the best pharmacological tool with which a pharmacologist can investigate compounds as to their possible antiinflammatory activity, owing to the fact that this experimental model of chronic inflammation looks closer like to the conditions of rheumatoid arthritis of the human pathology (see Pearson, C. M., Arthritis and allied conditions, page 119, Lea and Febiger Publ. 1967 and Pearson C. M., J. Chronic Diseases, 16, 863 (1963).
. The measure of effectiveness of the compounds in this test is given by their ability in reducing the volume of the hind paws of the rats.

SMILES | inhibition in vivo at 50 mg/kg [1] [%] | inhibition in vivo at 100 mg/kg [1] [%] | inhibition in vivo at 200 mg/kg [1] [%] | LD50 (in vivo) [mg/kg] | inhibition in vivo at 200 mg/kg [2] [%] | % Reduction of the volume of the hind paws over the control ([3]; 200 mg/kg) [%] | inhibition in vivo at 100 mg/kg [2] [%] | inhibition in vivo at 20 mg/kg [1] [%] | % Reduction of the volume of the hind paws over the control ([3]; 100 mg/kg) [%]
Cn1c(-c2ccccc2)nc2c3ccccc3ccc21 [Example 1, 3-methyl-2-phenyl-3H-naphtho[1,2-d]imidazole] | 24 | 37 | 42 | 1000 | 24 |  |  |  | 
CCOc1ccc(-c2nc3c4ccccc4ccc3n2C)cc1 [Example 2, 3-methyl-2-(4-ethoxyphenyl)-3H-naphtho[1,2-d]imidazole] | 21 | 37 | 45 | > 1000 | 40 |  |  |  | 
COc1ccc(-c2nc3c4ccccc4ccc3n2C)cc1 [Example 3, 2-(4-methoxyphenyl)-3-methyl-3H-naphtho[1,2-d]imidazole] | 34 | 41 |  | ~1000 |  | 33 | 40 |  | 
CN(C)c1ccc(-c2nc3c4ccccc4ccc3n2C)cc1 [Example 4, N,N-dimethyl-4-(3-methyl-3H-naphtho[1,2-d]imidazol-2-yl) benzenamine] | 46 | 54 |  | 500 |  |  | 24 | 32 | 
Cc1cc(-c2nc3c4ccccc4ccc3n2C)ccc1N(C)C [Example 5, 4-(3-methyl-3H-naphtho[1,2-d]imidazol-2-yl)-2,N,N-trimethylbenzenamine] | 50 | 64 |  | 500 |  |  | 38 | 35 | 42
CNc1ccc(-c2nc3c4ccccc4ccc3n2C)cc1 [Example 7, N-methyl-4-(3-methyl-3H-naphtho[1,2-d]imidazol-2-yl)benzenamine] | 37 | 47 |  | 500 |  |  | 33 | 29 | 
COc1ccc(-c2nc3c4ccccc4ccc3n2C(C)C)cc1 [Example 9, 3-(1-methylethyl)-2-(4-methoxyphenyl)-3H-naphth[1,2-d]imidazole] | 32 | 45 | 48 |  | 45 | 53 |  |  | 
CCn1c(-c2ccc(OC)cc2)nc2c3ccccc3ccc21 [Example 15, 3-ethyl-2-(4-methoxyphenyl)-3H-naphtho[1,2-d]imidazole] | 45 | 49 | 52 | > 1000 | 31 |  |  | 31 | 
